Among the data in ChEMBL document CHEMBL6153170 (J Med Chem, 2025) are IC50 and inhibition values, retold here.

The target of one experiment is T1, Histone deacetylase 7 (Homo sapiens, UniProt Q8WUI4).
T1 sequence (Q8WUI4 whole entry): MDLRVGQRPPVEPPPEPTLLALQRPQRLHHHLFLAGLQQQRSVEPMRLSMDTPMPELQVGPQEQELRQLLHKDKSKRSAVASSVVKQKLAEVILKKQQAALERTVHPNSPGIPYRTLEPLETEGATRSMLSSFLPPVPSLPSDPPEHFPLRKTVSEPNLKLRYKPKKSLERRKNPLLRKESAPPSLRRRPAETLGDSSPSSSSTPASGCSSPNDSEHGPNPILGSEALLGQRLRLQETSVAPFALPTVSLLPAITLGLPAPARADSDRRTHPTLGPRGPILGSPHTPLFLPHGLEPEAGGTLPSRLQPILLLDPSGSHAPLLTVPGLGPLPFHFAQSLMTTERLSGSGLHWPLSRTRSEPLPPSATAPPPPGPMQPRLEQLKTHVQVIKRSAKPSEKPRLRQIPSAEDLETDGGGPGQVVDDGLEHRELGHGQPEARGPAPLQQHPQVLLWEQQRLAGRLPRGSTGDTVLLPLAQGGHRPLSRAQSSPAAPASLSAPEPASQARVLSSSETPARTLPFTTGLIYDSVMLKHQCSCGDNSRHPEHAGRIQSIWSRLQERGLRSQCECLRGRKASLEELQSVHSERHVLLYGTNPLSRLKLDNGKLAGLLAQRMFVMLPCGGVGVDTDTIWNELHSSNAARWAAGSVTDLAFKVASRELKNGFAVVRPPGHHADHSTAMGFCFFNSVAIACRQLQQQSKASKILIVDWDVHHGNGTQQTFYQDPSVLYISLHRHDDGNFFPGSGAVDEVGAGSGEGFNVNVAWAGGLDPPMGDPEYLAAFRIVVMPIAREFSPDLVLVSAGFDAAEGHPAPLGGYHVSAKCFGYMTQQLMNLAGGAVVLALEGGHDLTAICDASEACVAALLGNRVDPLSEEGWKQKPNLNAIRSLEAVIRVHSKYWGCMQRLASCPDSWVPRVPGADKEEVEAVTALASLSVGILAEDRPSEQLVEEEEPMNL
In words: Inhibition of N-terminal GST-tagged recombinant human HDAC7 (501 to 952 residues) extracted from baculovirus expression system using Ac-Leu-Gly-Lys (Tfa)-AMC as substrate preincubated for 5 mins followed by substrate addition and measured after 30 mins by fluorescence microplate reader analysis.

Another experiment concerns HepG2. As to the kind of experiment: cells. As to conditions: Homo sapiens, HepG2, 48 h.
For another experiment, the system named is Jurkat. As to the kind of experiment: cells. As to conditions: Homo sapiens, 72 h.
A further experiment relates to MCF7. In words: cells. The note with it: Homo sapiens, MCF7, 48 h.
The next experiment relates to B16-F10. As to the kind of experiment: cells. As to conditions: Mus musculus, B16-F10, 48 h.
The target of experiment [1] is Programmed cell death protein 1/Programmed cell death 1 ligand 1 (Homo sapiens, UniProt Q9NZQ7). In words: Inhibition of PD-1/PD-L1 (unknown origin) protein-protein interaction by HTRF assay. The format is protein-complex assay.
Experiment [2] has as its target T2, Protein deacetylase HDAC6 (Homo sapiens) (UniProt Q9UBN7).
T2 sequence (whole entry): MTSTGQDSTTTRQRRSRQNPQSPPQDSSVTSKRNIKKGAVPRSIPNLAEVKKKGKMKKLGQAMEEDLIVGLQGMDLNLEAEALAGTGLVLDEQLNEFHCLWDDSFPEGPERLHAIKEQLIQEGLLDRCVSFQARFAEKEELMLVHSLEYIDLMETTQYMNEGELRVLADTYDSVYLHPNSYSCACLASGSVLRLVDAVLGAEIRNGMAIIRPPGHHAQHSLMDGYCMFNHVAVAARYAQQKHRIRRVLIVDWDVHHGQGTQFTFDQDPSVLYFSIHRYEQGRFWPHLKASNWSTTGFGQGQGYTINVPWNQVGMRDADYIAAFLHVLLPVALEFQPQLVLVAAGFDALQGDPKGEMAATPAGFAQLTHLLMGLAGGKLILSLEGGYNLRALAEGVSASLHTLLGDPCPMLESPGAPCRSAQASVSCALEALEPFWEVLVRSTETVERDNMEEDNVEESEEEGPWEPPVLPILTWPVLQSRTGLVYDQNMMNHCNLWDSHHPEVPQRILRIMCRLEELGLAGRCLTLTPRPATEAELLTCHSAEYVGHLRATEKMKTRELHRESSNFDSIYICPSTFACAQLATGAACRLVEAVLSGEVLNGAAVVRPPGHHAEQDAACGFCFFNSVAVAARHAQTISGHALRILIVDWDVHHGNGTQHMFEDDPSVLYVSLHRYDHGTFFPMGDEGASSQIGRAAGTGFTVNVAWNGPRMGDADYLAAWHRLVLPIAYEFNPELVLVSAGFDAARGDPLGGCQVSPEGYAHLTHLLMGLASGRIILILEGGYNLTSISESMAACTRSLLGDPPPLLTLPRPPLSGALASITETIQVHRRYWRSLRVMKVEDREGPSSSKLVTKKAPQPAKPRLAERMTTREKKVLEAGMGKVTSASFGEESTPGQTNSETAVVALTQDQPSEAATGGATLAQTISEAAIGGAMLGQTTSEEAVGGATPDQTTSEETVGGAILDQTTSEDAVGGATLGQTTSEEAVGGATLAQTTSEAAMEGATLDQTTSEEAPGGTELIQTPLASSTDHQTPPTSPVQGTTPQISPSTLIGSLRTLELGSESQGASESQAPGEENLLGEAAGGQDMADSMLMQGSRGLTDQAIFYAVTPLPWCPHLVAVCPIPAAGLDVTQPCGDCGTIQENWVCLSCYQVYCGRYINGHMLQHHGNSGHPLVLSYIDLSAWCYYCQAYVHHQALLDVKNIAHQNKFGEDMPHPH
As to conditions: Sf9, dose 100.0 nM, time 30.0 min.

Chain of Programmed cell death protein 1/Programmed cell death 1 ligand 1 (Q15116 whole entry): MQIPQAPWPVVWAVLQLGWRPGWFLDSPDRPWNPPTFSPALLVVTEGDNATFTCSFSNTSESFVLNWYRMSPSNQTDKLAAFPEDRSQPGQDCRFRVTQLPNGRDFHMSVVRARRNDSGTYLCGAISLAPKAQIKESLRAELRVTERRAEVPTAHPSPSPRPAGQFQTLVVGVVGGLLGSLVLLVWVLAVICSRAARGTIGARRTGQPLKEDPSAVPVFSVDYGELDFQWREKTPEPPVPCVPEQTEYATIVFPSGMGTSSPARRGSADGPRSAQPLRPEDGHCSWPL
Chain of Programmed cell death protein 1/Programmed cell death 1 ligand 1 (Q9NZQ7 whole entry): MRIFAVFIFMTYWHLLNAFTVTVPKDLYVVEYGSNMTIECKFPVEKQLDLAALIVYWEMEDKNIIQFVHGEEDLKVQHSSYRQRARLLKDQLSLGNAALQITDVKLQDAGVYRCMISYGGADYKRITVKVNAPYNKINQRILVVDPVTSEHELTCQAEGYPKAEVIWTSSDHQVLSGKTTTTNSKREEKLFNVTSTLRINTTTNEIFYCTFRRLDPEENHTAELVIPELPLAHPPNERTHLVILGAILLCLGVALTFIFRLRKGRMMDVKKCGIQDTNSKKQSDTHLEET

A word on the IC50: it is the concentration needed to halve the response being measured. With `COc1nc(-c2cccc(-c3ccccc3)c2C)ccc1CNCCCCCC(=O)NO`, the IC50 is over 100000 nM at Histone deacetylase 7; over 10000 nM with HepG2; over 10000 nM in the experiment with Jurkat; over 10000 nM in the experiment with MCF7; over 10000 nM in the experiment on B16-F10; 69.4 nM in experiment [1].

Broadly, the inhibition is how much of the control response was suppressed. In the case of `Nc1ccccc1NC(=O)c1ccc(CNC(=O)OCc2cccnc2)cc1`, the inhibition in experiment [2] was under 10%. Consider `COc1nc(-c2cccc(-c3ccccc3)c2C)ccc1CNc1cc(C(=O)NO)c[nH]1`, for which the inhibition in experiment [2] was under 10%. The compound also yielded an IC50 in experiment [1] of 100 nM.

On to `COc1nc(-c2cccc(-c3ccccc3)c2C)ccc1CNC1CCC(C(=O)Nc2ccccc2N)CC1` (stereo unspecified), for which the inhibition in experiment [2] was under 13.5%. This compound gave a concentration for half-maximal inhibition (IC50) in experiment [1] of over 1000 nM. In experiment [1], `COc1nc(-c2cccc(-c3ccccc3)c2C)ccc1CNCCCCCCC(=O)Nc1ccccc1N` showed a 50% inhibitory concentration (IC50) of 100 nM. Still for that read-out and setting: the value for `COc1nc(-c2cccc(-c3ccccc3)c2C)ccc1CN1CCC(C(=O)Nc2ccccc2N)C1` (stereo unspecified) was 99 nM; that for `COc1nc(-c2cccc(-c3ccccc3)c2C)ccc1CNCCCCCC(=O)Nc1ccccc1N` was 88 nM. With `COc1nc(-c2cccc(-c3ccccc3)c2C)ccc1CNC1(C(=O)Nc2ccccc2N)CCCC1`, in experiment [2], the inhibition was under 13.5%. In experiment [1], the 50% inhibitory concentration (IC50) is over 1000 nM. In experiment [1], `COc1nc(OCc2cccc(-c3ccccc3)c2C)ccc1CNc1cc(C(=O)NO)c[nH]1` displayed an IC50 of 87.6 nM. The same measure, in the same setting: as for `COc1nc(-c2cccc(-c3ccccc3)c2C)ccc1CNc1ccc2cc(C(=O)Nc3ccccc3N)ccc2c1`, the figure is over 1000 nM. Take `COc1nc(-c2cccc(-c3ccccc3)c2C)ccc1CNCCCC(=O)Nc1ccccc1N`: the half-inhibitory concentration (IC50) in the experiment on HepG2 was over 10000 nM; with Jurkat, 7570 nM; with MCF7 it was over 10000 nM; with B16-F10 it was 9820 nM; in experiment [1], 83.7 nM. Compound `COc1nc(OCc2cccc(-c3ccccc3)c2C)ccc1CNC1CCC(C(=O)Nc2ccccc2N)CC1` (stereo unspecified) gave an inhibition in experiment [2] of under 10%. The 50% inhibitory concentration (IC50) in experiment [1] was over 1000 nM.

In experiment [1], `COc1nc(-c2cccc(-c3ccccc3)c2C)ccc1Cn1ccc(C(=O)Nc2ccccc2N)c1` yielded an IC50 of 85.2 nM. As to `CCCC[C@@H](NCc1ccc(OCc2cccc(-c3ccccc3)c2C)nc1OC)C(=O)Nc1ccccc1N`, in experiment [2], the inhibition was under 10%. Also, the concentration for half-maximal inhibition (IC50) in experiment [1] turned out to be 100 nM.

In experiment [1], `COc1nc(-c2cccc(-c3ccccc3)c2C)ccc1CNc1ccc(C(=O)NO)s1` gave an IC50 of 100 nM. Still for that read-out and setting: as for `COc1nc(OCc2cccc(-c3ccccc3)c2C)ccc1CNCCCCCC(=O)Nc1ccccc1N`, the figure is 96.3 nM; as for `COc1nc(-c2cccc(-c3ccccc3)c2C)ccc1CNc1ccc(CC(=O)NO)cc1`, 64.3 nM. Turning to `COc1nc(OCc2cccc(-c3ccccc3)c2C)ccc1CNCCCC(=O)NO`, the IC50 in experiment [1] is over 1000 nM. Regarding `CC[C@@H](NCc1ccc(-c2cccc(-c3ccccc3)c2C)nc1OC)C(=O)Nc1ccccc1N`, in experiment [2], the inhibition is under 13.5%. The same compound had a half-inhibitory concentration (IC50) in experiment [1] of over 1000 nM. In experiment [1], `COc1nc(OCc2cccc(-c3ccccc3)c2C)ccc1CNCCCCCC(=O)NO` gave an IC50 of 68.3 nM. `COc1nc(-c2cccc(-c3ccccc3)c2C)ccc1CNc1cccc(C(=O)Nc2ccccc2N)c1` yielded an inhibition in experiment [2] of under 10%. The same compound returned an IC50 in experiment [1] of over 1000 nM. `COc1nc(OCc2cccc(-c3ccccc3)c2C)ccc1CN1CCC(C(=O)Nc2ccccc2N)C1` (stereo unspecified) registered an IC50 in experiment [1] of 72.2 nM.

As to `CCCC[C@@H](NCc1ccc(-c2cccc(-c3ccccc3)c2C)nc1OC)C(=O)Nc1ccccc1N`, in experiment [2], the inhibition was under 13.5%. The IC50 in experiment [1] was over 1000 nM.

As to `COc1nc(OCc2cccc(-c3ccccc3)c2C)ccc1CNC(C)(C)C(=O)NO`, the inhibition in experiment [2] is under 10%. Also, the IC50 in experiment [1] was over 1000 nM. Compound `COc1nc(-c2cccc(-c3ccccc3)c2C)ccc1CNc1ccc(CC(=O)Nc2ccccc2N)cc1` registered an inhibition in experiment [2] of under 10%. This compound also yielded an IC50 in experiment [1] of 100 nM. The corresponding values for `COc1nc(-c2cccc(-c3ccccc3)c2C)ccc1CN1CCC(C(=O)Nc2ccccc2N)CC1` are under 10% and 100 nM. Consider `CCC[C@@H](NCc1ccc(OCc2cccc(-c3ccccc3)c2C)nc1OC)C(=O)Nc1ccccc1N`, for which, in experiment [2], the inhibition is under 10%. It took 97.5 nM to reach half-maximal inhibition in experiment [1] (IC50). In experiment [1], `COc1nc(-c2cccc(-c3ccccc3)c2C)ccc1CNCCC(=O)NO` yielded a half-maximal inhibitory concentration (IC50) of 67.6 nM. In turn, `COc1nc(-c2cccc(-c3ccccc3)c2C)ccc1CN1CCN(C(=O)NO)CC1` yielded an inhibition in experiment [2] of under 10%. The compound also had a half-inhibitory concentration (IC50) in experiment [1] of 100 nM. In the case of `COc1nc(OCc2cccc(-c3ccccc3)c2C)ccc1CN1CCCC1C(=O)Nc1ccccc1N` (stereo unspecified), the IC50 in experiment [1] is over 1000 nM.

For `COc1nc(-c2cccc(-c3ccccc3)c2C)ccc1CNc1ccc(C(=O)Nc2ccccc2N)s1`, the inhibition in experiment [2] was under 10%. Besides, the midpoint of inhibition in experiment [1], the IC50, lay at 100 nM. The corresponding values for `COc1nc(OCc2cccc(-c3ccccc3)c2C)ccc1CNC(C)(C)CC(=O)Nc1ccccc1N` are under 10% and 90.6 nM. For `COc1nc(OCc2cccc(-c3ccccc3)c2C)ccc1CNc1ccc(CC(=O)NO)cc1`, the IC50 in experiment [1] is 100 nM. Same read-out and setting: the value for `COc1nc(OCc2cccc(-c3ccccc3)c2C)ccc1CNc1cccc(C(=O)NO)c1` was 100 nM.

In experiment [2], `COc1nc(OCc2cccc(-c3ccccc3)c2C)ccc1CNCC(=O)NO` displayed an inhibition of under 10%. Also, the IC50 in experiment [1] amounted to 93.5 nM.

Regarding `COc1nc(OCc2cccc(-c3ccccc3)c2C)ccc1CNc1ccc(C(=O)NO)cc1`, the 50% inhibitory concentration (IC50) in experiment [1] is 100 nM. Same read-out and setting: as for `COc1nc(OCc2cccc(-c3ccccc3)c2C)ccc1CNCCCCCCC(=O)Nc1ccccc1N`, the figure is 83.6 nM; as for `COc1nc(-c2cccc(-c3ccccc3)c2C)ccc1CNCCCCC(=O)Nc1ccccc1N`, 100 nM. `CC[C@@H](NCc1ccc(OCc2cccc(-c3ccccc3)c2C)nc1OC)C(=O)Nc1ccccc1N` showed an inhibition in experiment [2] of under 10%. In experiment [1], this compound came in with an IC50 of 100 nM. The compound `COc1nc(OCc2cccc(-c3ccccc3)c2C)ccc1CNc1ccc(C(=O)Nc2ccccc2N)cc1` came in with an IC50 in experiment [1] of over 1000 nM.
